Assay results taken from patent US20080306067A1, “Modulators of Chemokine Receptor Activity” (priority 2005, published 2008).

Key:
human CCR-3 = molecular target: T1, human CCR-3 (Homo sapiens, UniProt P51677); assay: binding of [125I]-human eotaxin to human CCR-3 (SPA, membranes of RBL-2H3 cells expressing CCR3); settings: 4 hours at room temperature, read-out: IC50 (inhibition of binding of eotaxin to CCR-3)
T1 construct: expressed in transfected cells; membrane preparation
T1 sequence (P51677 1-355): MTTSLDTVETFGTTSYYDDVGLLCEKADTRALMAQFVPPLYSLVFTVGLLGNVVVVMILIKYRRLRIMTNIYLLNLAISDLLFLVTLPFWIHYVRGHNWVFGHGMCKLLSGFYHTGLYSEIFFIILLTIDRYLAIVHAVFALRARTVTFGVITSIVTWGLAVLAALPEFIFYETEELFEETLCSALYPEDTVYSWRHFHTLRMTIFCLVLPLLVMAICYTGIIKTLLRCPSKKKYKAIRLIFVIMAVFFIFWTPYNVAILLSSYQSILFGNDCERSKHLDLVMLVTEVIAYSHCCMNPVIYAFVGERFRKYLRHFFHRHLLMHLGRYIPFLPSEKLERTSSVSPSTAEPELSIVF
Protocol: In this assay the effect of the compounds of the present invention on the binding of human eotaxin to human CCR-3 is determined. Recombinant cells expressing human CCR-3 are captured by wheatgerm agglutinin (WGA) polyvinyltoluidene (PVT) SPA beads (available from Amersham), through a specific interaction between the WGA and carbohydrate residues of glycoproteins on the surface of the cells. [^125I]-human eotaxin (available from Amersham) binds specifically to CCR-3 receptors bringing the [^125I]-human eotaxin in close proximity to the SPA beads. Emitted â-particles from the [^125I]-human eotaxin excite, by its proximity, the fluorophore in the beads and produce light.
Preparation of Assay Buffer. 5.96 g HEPES and 7.0 g sodium chloride are dissolved in distilled H2O and 1M aq. CaCl2 (1 ml) and 1M aq. MgCl2 (5 ml) are added. The pH is adjusted to 7.6 with NaOH and the solution made to a final volume of 1 L using distilled H2O. 5 g of bovine serum albumin and 0.1 g NaN3 are dissolved in the solution and the resulting buffer stored at 4° C. […]
The assay is performed in a final volume of 250 μl per well of an Optiplate™ microplate (ex Canberra Packard). […] The resulting scintillations are counted using a Canberra Packard TopCount™ scintillation counter, each well being counted for 1 minute. […]

[1] = molecular target: alpha-1 adrenergic receptor; assay: alpha-1 adrenergic receptor radioligand binding assay ([125I]-HEAT, rat cerebral cortex membranes); settings: radioligand used at 40 pM
Protocol: The inhibitory properties of the compounds of the present invention on binding of the alpha-1 adrenergic receptor can be determined in the following assay:
Cerebral cortices from male Sprague-Dawley rats (175-200 g) are dissected and homogenised in 10 volumes of ice cold 0.32 M sucrose (containing 1 mM MgCl2 dihydrate and 1 mM K2HPO4) with a glass/Teflon homogeniser. The membranes are centrifuged at 1000×g for 15 minutes, the pellet discarded and the centrifugation repeated. The supernatants are pooled and centrifuged at 18,000×g for 15 minutes. The pellet is osmotically shocked in 10 volumes of H2O and kept on ice for 30 minutes. The suspension is centrifuged at 39,000×g for 20 minutes, resuspended in Krebs-Henseleit buffer pH 7.4 (1.17 mM MgSO4 anhydrous, 4.69 mM KCl, 0.7 mM K2HPO4 anhydrous, 0.11 M NaCl, 11 mM D-glucose and 25 mM NaHCO3) containing 20 mM Tris, and kept for 2 days at −20° C. […]
The resulting membranes are subjected to a radioligand binding assay. […] Following drying of the plates for 3 h. at 50° C., 40 μl of Microscint 20 is added to each well, the plates incubated at room temperature for a further 20 minutes and the retained radioactivity quantified in a Packard TopCount NXT™ scintillation counter. […]

Structure (SMILES) | IC50 (human CCR-3) | Kd [1]
CN(CCCCNC(=O)Nc1cccc(-c2nnnn2C)c1)Cc1ccc(F)cc1 [Example 1, 1-{4-[(4-Fluorobenzyl)-methylamino]butyl}-3-[3-(1-methyl-1H-tetrazol-5-yl)phenyl]-urea] | ~6 nM | 
O=C1c2ccccc2CCC1CNCCc1ccc(O)c(I)c1 (centres unmarked) [[^125I]-HEAT] |  | 0.0589 ± 0.0187 nM
